Experiments:
Assay in all cases: split-luciferase competition binding
[1] = target: AKT1 (human) (UniProt P31749); details: compound 10.0 µM
[2] = target: AKT2 (human) (UniProt P31751); details: compound 10.0 µM
[3] = target: AKT3 (human) (UniProt Q9Y243); details: compound 10.0 µM
[4] = target: AURKA (human) (UniProt O14965); details: compound 10.0 µM
[5] = target: AURKB (human) (UniProt Q96GD4); details: compound 10.0 µM
[6] = target: AURKC (human) (UniProt Q9UQB9); details: compound 10.0 µM
[7] = target: DMPK (human) (UniProt Q09013); details: compound 10.0 µM
[8] = target: PDPK1 (human) (UniProt O15530); details: compound 10.0 µM
[9] = target: PKN1 (human) (UniProt Q16512); details: compound 10.0 µM
[10] = test system: PRKACA (mouse); details: compound 10.0 µM; accession and sequence are those of the human protein
[11] = target: PRKACB (human) (UniProt P22694); details: compound 10.0 µM
[12] = target: PRKCD (human) (UniProt Q05655); details: compound 10.0 µM
[13] = target: PRKCE (human) (UniProt Q02156); details: compound 10.0 µM
[14] = target: PRKCG (human) (UniProt P05129); details: compound 10.0 µM
[15] = target: PRKCH (human) (UniProt P24723); details: compound 10.0 µM
[16] = target: PRKCI (human) (UniProt P41743); details: compound 10.0 µM
Sequence of PRKCI (human) (P41743 whole entry, looked up): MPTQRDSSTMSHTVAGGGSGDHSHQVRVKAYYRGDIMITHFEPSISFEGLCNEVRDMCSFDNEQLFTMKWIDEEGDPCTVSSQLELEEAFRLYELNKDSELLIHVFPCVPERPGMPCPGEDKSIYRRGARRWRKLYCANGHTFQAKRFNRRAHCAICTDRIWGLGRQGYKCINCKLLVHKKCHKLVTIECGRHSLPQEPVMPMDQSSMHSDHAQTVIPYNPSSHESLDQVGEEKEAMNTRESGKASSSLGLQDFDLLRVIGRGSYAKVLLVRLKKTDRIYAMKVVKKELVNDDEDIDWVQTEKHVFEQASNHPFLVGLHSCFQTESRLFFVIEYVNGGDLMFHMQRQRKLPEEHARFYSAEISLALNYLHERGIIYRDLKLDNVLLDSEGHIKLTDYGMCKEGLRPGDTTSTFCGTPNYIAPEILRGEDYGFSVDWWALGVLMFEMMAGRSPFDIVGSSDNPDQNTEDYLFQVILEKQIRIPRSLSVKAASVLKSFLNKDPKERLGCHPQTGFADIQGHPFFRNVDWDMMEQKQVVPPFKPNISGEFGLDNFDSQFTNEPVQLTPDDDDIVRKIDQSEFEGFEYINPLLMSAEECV

[17] = target: PRKCQ (human) (UniProt Q04759); details: compound 10.0 µM
Sequence of PRKCQ (human) (Q04759 whole entry, looked up): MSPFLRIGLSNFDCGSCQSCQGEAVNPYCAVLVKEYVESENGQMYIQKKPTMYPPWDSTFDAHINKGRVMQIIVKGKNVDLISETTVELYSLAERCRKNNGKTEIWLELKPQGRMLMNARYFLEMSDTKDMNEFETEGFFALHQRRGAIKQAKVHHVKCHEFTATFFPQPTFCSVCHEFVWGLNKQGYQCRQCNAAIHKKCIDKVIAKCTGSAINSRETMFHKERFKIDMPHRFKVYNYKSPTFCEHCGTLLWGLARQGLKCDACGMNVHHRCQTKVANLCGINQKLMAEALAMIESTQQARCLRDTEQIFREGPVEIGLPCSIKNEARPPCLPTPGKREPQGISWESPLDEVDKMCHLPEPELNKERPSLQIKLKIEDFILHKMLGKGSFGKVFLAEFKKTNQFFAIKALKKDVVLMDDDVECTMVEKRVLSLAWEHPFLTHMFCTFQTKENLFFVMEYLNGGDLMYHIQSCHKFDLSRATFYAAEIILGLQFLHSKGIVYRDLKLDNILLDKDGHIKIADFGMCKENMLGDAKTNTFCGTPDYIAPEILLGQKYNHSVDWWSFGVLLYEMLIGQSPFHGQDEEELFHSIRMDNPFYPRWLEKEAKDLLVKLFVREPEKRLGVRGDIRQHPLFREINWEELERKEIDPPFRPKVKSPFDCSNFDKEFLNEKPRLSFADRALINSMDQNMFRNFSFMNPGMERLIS

[18] = target: PRKX (human) (UniProt P51817); details: compound 10.0 µM
Sequence of PRKX (human) (P51817 whole entry, looked up): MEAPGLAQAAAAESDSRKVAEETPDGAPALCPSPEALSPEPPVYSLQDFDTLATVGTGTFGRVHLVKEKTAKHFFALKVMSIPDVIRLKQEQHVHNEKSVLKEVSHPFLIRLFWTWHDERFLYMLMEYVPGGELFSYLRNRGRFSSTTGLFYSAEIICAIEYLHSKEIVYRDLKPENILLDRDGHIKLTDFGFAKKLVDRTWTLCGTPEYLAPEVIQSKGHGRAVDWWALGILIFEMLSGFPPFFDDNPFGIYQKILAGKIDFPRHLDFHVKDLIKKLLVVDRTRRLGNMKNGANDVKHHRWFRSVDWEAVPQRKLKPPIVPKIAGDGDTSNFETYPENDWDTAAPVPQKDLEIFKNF

[19] = target: RPS6KA1 KD1 (human) (UniProt Q15418); details: compound 10.0 µM
[20] = target: RPS6KA2 KD1 (human) (UniProt Q15349); details: compound 10.0 µM
Sequence of RPS6KA2 KD1 (human) (Q15349 whole entry, looked up): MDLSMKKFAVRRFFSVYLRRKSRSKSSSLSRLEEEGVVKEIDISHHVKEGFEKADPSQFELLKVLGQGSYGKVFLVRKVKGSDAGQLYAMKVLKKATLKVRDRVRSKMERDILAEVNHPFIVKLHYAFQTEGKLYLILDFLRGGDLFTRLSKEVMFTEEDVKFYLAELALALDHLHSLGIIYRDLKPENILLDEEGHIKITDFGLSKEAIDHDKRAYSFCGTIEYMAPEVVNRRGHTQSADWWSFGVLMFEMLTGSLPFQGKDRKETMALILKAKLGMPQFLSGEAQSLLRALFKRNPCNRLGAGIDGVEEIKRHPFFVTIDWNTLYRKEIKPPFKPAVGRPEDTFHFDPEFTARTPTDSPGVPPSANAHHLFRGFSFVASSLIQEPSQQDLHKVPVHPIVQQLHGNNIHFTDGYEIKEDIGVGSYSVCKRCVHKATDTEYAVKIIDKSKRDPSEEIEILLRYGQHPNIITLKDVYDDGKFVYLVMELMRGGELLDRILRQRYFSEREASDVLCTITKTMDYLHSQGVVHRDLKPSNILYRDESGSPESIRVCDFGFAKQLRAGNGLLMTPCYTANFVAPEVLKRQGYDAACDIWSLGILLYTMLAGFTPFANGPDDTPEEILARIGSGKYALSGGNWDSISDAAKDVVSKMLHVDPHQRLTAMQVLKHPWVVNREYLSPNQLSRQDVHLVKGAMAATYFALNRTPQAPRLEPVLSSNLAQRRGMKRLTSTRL

[21] = target: RPS6KA3 KD1 (human) (UniProt P51812); details: compound 10.0 µM
[22] = target: RPS6KA4 KD1 (human) (UniProt O75676); details: compound 10.0 µM
[23] = target: RPS6KA5 KD1 (human) (UniProt O75582); details: compound 10.0 µM
[24] = target: RPS6KA6 KD1 (human) (UniProt Q9UK32); details: compound 10.0 µM
[25] = target: SGK2 (human) (UniProt Q9HBY8); details: compound 10.0 µM
Sequence of SGK2 (human) (Q9HBY8 whole entry, looked up): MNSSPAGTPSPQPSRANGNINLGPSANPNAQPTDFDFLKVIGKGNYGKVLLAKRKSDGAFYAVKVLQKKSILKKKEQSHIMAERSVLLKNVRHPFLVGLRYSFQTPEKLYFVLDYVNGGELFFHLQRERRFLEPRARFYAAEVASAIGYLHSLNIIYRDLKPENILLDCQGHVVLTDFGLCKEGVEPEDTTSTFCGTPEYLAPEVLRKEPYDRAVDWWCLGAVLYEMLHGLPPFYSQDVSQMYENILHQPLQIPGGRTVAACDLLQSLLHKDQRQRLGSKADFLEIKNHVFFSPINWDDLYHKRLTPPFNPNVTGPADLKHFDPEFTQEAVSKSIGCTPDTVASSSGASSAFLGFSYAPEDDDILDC

[26] = target: SGK3 (human) (UniProt Q96BR1); details: compound 10.0 µM
[27] = target: STK32B (human) (UniProt Q9NY57); details: compound 10.0 µM

Sequence of AURKB (human) (Q96GD4 whole entry, looked up): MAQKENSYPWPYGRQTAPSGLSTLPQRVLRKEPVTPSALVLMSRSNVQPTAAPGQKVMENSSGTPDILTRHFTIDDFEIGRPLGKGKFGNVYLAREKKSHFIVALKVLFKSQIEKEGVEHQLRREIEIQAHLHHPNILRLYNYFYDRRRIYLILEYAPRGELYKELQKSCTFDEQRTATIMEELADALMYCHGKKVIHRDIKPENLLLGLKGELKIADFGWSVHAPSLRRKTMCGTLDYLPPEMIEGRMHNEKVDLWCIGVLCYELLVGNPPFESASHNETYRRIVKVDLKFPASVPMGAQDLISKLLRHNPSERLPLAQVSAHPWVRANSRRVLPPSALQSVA
Sequence of AKT2 (human) (P31751 whole entry, looked up): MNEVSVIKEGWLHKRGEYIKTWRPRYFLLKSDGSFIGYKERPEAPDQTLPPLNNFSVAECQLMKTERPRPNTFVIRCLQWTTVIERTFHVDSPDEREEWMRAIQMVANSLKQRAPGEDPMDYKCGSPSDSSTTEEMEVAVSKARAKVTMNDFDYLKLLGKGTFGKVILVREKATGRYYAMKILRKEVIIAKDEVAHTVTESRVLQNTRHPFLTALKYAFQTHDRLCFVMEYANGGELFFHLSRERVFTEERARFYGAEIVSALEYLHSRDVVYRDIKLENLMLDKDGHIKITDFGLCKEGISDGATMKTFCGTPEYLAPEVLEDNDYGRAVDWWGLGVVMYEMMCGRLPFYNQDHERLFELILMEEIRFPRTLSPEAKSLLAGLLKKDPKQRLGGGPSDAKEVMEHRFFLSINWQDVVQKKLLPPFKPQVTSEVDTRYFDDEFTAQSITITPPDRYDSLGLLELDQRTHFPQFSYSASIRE
Sequence of AKT1 (human) (P31749 whole entry, looked up): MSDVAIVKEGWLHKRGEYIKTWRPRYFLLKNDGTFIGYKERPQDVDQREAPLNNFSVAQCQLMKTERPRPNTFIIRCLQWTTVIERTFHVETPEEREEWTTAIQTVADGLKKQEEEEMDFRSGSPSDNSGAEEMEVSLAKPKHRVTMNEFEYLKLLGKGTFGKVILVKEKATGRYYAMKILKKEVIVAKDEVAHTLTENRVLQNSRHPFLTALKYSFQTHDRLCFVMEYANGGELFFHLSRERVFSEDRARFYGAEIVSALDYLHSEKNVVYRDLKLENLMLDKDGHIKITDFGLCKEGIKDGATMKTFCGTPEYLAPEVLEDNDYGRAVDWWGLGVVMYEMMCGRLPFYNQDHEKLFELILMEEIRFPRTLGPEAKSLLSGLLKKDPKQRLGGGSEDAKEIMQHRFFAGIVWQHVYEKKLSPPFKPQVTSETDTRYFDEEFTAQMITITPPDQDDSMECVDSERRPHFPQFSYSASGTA
Sequence of AKT3 (human) (Q9Y243 whole entry, looked up): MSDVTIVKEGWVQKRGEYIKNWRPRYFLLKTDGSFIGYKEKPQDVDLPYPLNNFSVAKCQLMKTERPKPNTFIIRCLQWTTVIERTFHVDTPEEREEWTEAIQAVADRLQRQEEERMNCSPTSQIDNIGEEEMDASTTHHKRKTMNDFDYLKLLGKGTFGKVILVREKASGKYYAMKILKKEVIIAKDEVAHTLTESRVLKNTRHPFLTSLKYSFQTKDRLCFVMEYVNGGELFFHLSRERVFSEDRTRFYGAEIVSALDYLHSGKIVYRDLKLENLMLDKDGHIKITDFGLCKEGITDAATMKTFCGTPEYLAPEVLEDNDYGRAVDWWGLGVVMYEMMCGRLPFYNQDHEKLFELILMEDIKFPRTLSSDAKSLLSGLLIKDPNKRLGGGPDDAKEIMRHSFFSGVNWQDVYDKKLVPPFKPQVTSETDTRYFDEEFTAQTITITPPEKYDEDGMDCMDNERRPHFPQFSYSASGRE
Sequence of AURKC (human) (Q9UQB9 whole entry, looked up): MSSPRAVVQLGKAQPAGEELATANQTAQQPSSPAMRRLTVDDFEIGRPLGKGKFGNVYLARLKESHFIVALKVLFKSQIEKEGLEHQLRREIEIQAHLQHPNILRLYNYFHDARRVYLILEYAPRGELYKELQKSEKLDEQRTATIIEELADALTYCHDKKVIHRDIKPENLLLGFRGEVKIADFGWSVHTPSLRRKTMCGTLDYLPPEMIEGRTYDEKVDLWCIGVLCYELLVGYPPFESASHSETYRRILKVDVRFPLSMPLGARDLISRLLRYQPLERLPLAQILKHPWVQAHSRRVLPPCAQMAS

| Structure (SMILES) | inhibition [1] [%] | inhibition [2] [%] | inhibition [3] [%] | inhibition [4] [%] | inhibition [5] [%] | inhibition [6] [%] | inhibition [7] [%] | inhibition [8] [%] | inhibition [9] [%] | inhibition [10] [%] | inhibition [11] [%] | inhibition [12] [%] | inhibition [13] [%] | inhibition [14] [%] | inhibition [15] [%] | inhibition [16] [%] | inhibition [17] [%] | inhibition [18] [%] | inhibition [19] [%] | inhibition [20] [%] | further results |
| --- | --- | --- | --- | --- | --- | --- | --- | --- | --- | --- | --- | --- | --- | --- | --- | --- | --- | --- | --- | --- | --- |
| COc1ccc(Cl)cc1NC(=O)Nc1cc(C)nc2ccccc12 | 0 | 0 | 0 | 0 | 14 | 16 | 6 | 0 | 0 | 5 | 0 | 0 | 0 | 0 | 0 | 0 | 0 | 1 | 0 | 0 | inhibition [21]: 0%; inhibition [22]: 0%; inhibition [23]: 3%; inhibition [24]: 0%; inhibition [25]: 0%; inhibition [26]: 0%; inhibition [27]: 0% |
| COc1cc2ncnc(Nc3ccc(F)c(Cl)c3)c2cc1OCCCN1CCOCC1 | 0 | 0 | 0 | 0 | 27 | 19 | 13 | 2 | 0 | 1 | 0 | 0 | 7 | 9 | 0 | 0 | 2 | 7 | 0 | 0 | inhibition [21]: 0%; inhibition [22]: 0%; inhibition [23]: 0%; inhibition [24]: 0%; inhibition [25]: 0%; inhibition [26]: 3%; inhibition [27]: 0% |
| CC(C)[C@H](CO)Nc1nc(Nc2cc(N)cc(Cl)c2)c2ncn(C(C)C)c2n1 | 0 | 0 | 0 | 0 | 0 | 0 | 7 | 0 | 0 | 13 | 1 | 6 | 6 | 0 | 10 | 0 | 29 | 6 | 83 | 79 | inhibition [21]: 77%; inhibition [22]: 39%; inhibition [23]: 18%; inhibition [24]: 55%; inhibition [25]: 2%; inhibition [26]: 5%; inhibition [27]: 20% |
| COc1cc2nccc(Oc3ccc(NC(=O)Nc4ccc(F)cc4F)c(F)c3)c2cc1OC | 6 | 0 | 0 | 41 | 71 | 80 | 13 | 0 | 10 | 16 | 5 | 0 | 0 | 3 | 0 | 0 | 20 | 12 | 0 | 32 | inhibition [21]: 12%; inhibition [22]: 23%; inhibition [23]: 43%; inhibition [24]: 21%; inhibition [25]: 17%; inhibition [26]: 12%; inhibition [27]: 0% |
| O=C1Nc2ccc(I)cc2/C1=C/c1cc(Br)c(O)c(Br)c1 | 19 | 0 | 0 | 0 | 26 | 0 | 11 | 0 | 4 | 9 | 11 | 2 | 10 | 5 | 10 | 0 | 0 | 11 | 23 | 14 | inhibition [21]: 12%; inhibition [22]: 4%; inhibition [23]: 13%; inhibition [24]: 19%; inhibition [25]: 10%; inhibition [26]: 0%; inhibition [27]: 0% |
| CN1CC[C@H](c2c(O)cc(O)c3c(=O)cc(-c4ccccc4Cl)oc23)[C@H](O)C1 | 1 | 0 | 0 | 12 | 0 | 28 | 6 | 0 | 1 | 5 | 0 | 15 | 0 | 0 | 0 | 0 | 35 | 8 | 19 | 2 | inhibition [21]: 8%; inhibition [22]: 23%; inhibition [23]: 16%; inhibition [24]: 2%; inhibition [25]: 0%; inhibition [26]: 0%; inhibition [27]: 11% |

From the kinase profiling compilation of Christmann-Franck et al. (2016)
